# Measurements from ChEMBL document CHEMBL3259764, “Pim kinase inhibitory and antiproliferative activity of a novel series of meridianin C derivatives” (Bioorg Med Chem Lett, 2014).
# Assays:
# [1] = target: Serine/threonine-protein kinase pim-1 (Homo sapiens, UniProt P11309); assay: Inhibition of PIM1 kinase (unknown origin) using 5-FAM-labeled BAD peptide as substrate after 90 mins by fluorescence polarization assay
# [2] = target: Serine/threonine-protein kinase pim-2 (Homo sapiens, UniProt Q9P1W9); assay: Inhibition of PIM2 kinase (unknown origin) using 5-FAM-labeled BAD peptide as substrate after 90 mins by fluorescence polarization assay
# [3] = target: Serine/threonine-protein kinase pim-3 (Homo sapiens, UniProt Q86V86); assay: Inhibition of PIM3 kinase (unknown origin) using 5-FAM-labeled BAD peptide as substrate after 90 mins by fluorescence polarization assay
# [4] = target: CDK2/Cyclin A2 (Homo sapiens) (UniProt P24941+P20248); assay: Inhibition of CDK2/cyclinA kinase (unknown origin) at 10 uM; assay type: protein-complex assay
# [5] = Antiproliferative activity against human MV411 cells assessed as cell viability after 24 hrs by MTS assay; assay type: functional, cell-based; details: MV4-11, 24 h
# [6] = test system: K562; assay: Antiproliferative activity against human K562 cells assessed as cell viability after 24 hrs by MTS assay; assay type: functional, cell-based; details: K562, 24 h
# [7] = Antiproliferative activity against human Jurkat E6-1 cells assessed as cell viability after 24 hrs by MTS assay; assay type: functional, cell-based
# [8] = test system: Caco-2; assay: Permeability across human Caco2 cells; assay type: ADME, cell-based
# Chain of Serine/threonine-protein kinase pim-2 (Q9P1W9 whole entry): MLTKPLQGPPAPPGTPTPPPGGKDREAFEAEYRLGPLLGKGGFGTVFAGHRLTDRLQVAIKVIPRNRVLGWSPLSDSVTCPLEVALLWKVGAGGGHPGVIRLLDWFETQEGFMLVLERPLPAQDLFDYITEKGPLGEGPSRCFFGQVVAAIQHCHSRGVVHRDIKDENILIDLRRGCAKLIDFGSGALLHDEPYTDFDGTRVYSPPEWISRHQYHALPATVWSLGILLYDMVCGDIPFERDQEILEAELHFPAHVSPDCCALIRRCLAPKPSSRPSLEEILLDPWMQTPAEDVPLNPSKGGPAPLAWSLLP
# Chain of Serine/threonine-protein kinase pim-1 (P11309 whole entry): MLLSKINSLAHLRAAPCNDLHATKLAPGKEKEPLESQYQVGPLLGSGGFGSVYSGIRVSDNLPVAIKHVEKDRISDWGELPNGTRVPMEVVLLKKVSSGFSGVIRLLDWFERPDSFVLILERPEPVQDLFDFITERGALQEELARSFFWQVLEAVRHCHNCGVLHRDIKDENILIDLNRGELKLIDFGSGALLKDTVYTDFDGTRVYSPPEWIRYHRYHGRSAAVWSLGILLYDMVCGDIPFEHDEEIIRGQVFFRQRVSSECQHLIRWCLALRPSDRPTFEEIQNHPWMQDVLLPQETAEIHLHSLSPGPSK
IC50 [1],IC50 [2],IC50 [3],inhibition [4],EC50 [6],permeability [8],SMILES,EC50 [5],EC50 [7]
17.2 nM,920 nM,30.2 nM,–,–,–,CCN(CC)CCCNc1cncc(-c2ccc3[nH]cc(-c4ccnc(N)n4)c3c2)n1,–,–
1130 nM,–,–,–,–,–,CN(C)/C=C/C(=O)c1c[nH]c2ccc(-c3cncc(OCCN(C)C)n3)cc12,–,–
18.7 nM,540 nM,20.5 nM,–,–,–,CN(C)CCCOc1cncc(-c2ccc3[nH]cc(-c4ccnc(N)n4)c3c2)n1,–,–
370 nM,–,–,–,–,–,CN(C)/C=C/C(=O)c1c[nH]c2ccc(-c3cncc(NCCN(C)C)n3)cc12,–,–
2.8 nM,310 nM,9.9 nM,–,–,–,CCN(CC)CCNc1cncc(-c2ccc3[nH]cc(-c4ccnc(N)n4)c3c2)n1,–,–
–,–,–,54%,–,–,Nc1nccc(-c2c[nH]c3ccccc23)n1,–,–
270 nM,–,–,–,–,–,CN(C)CCNc1cncc(-c2ccc3[nH]cc(C(=O)C4CC4)c3c2)n1,–,–
400 nM,–,–,–,–,–,CN(C)CCOc1cncc(-c2ccc3[nH]cc(C(=O)c4ccccc4)c3c2)n1,–,–
34.5 nM,660 nM,55.7 nM,–,13700 nM,–,CCN(CC)CCCOc1cncc(-c2ccc3[nH]cc(-c4ccnc(N)n4)c3c2)n1,1500 nM,10900 nM
8 nM,180 nM,7.8 nM,–,–,–,CN(C)CCN(C)c1cncc(-c2ccc3[nH]cc(-c4ccnc(N)n4)c3c2)n1,–,–
45.1 nM,740 nM,50.9 nM,–,20800 nM,permeable,CCOc1cncc(-c2ccc3[nH]cc(-c4ccnc(N)n4)c3c2)n1,500 nM,15000 nM
20.4 nM,380 nM,21.7 nM,–,18500 nM,–,CN(C)CCOc1cncc(-c2ccc3[nH]cc(-c4ccnc(N)n4)c3c2)n1,2900 nM,13500 nM
1040 nM,–,–,–,–,–,Nc1nccc(-c2c[nH]c3ccc(Br)cc23)n1 [MERIDIANIN C],–,–
3.4 nM,110 nM,6.5 nM,–,–,permeable,CN(C)CCNc1cncc(-c2ccc3[nH]cc(-c4ccnc(N)n4)c3c2)n1,–,–
270 nM,–,–,–,–,–,CC(=O)c1c[nH]c2ccc(-c3cncc(NCCN(C)C)n3)cc12,–,–
18.3 nM,630 nM,31.3 nM,–,–,–,CN(C)CCCNc1cncc(-c2ccc3[nH]cc(-c4ccnc(N)n4)c3c2)n1,–,–
25.8 nM,590 nM,30 nM,–,17900 nM,–,CCN(CC)CCOc1cncc(-c2ccc3[nH]cc(-c4ccnc(N)n4)c3c2)n1,3300 nM,14400 nM
